{"source": "patent US20140158233A1", "about": "“AEROSOL DELIVERY TO A MICROFLUIDIC DEVICE” (PRESIDENT AND FELLOWS OF HARVARD COLLEGE, priority 2011, published 2014)", "test_system": "human alveolar epithelial cells (A549)", "test": "Aerosol delivery of a model agent to cells in a lung-on-a-chip (cell uptake, time-course fluorescence images)", "type": "cell-based", "conditions": "50 micromolar fluorescein sodium in isotonic PBS, nebulized droplets, flow ~20 mL/hr into top channel; confluent A549 monolayer at air interface; images 0-10 min (FIGS. 14A-14D)", "source_text": "In accordance with some embodiments described herein, an agent can be aerosolized and directed to a microfluidic channel for delivery of the agent to a cell. In some embodiments, the microfluidic channel can be present in a lung-on-a-chip device as described earlier. By way of example only, to evaluate efficacy of aerosol delivery to and/or deposition on a cell using one or more embodiments of the aerosol delivery device described herein, a monolayer of human alveolar epithelial cells (A549) was grown to confluence on the top side of a porous membrane of the lung-on-a-chip, for example, the one described in the International Patent Application WO 2010/009307, the content of which is incorporated herein by reference. In some embodiments, no cells were seeded on the bottom side of the membrane. […] In some embodiments, at least the top channel inlet port 1310 of the lung-on-a-chip 1300 can be modified to include an inertial impactor as described herein. […] The microchannel 142 (in fluid communication with the chamber 150) and the porous membrane 160 can be directly or indirectly connected to the top channel 1320 and the porous membrane 1340 of the lung-on-a-chip 1300. […]", "data": [{"smiles": "O=C1OC2(c3ccc(O)cc3Oc3cc(O)ccc32)c2ccccc21", "note": "[fluorescein, fluorescein sodium]", "values": [{"measurement": "cell uptake of aerosolized fluorescein after deposition on the cells", "value": "taken up by the cells"}]}]}
